Laboratory results published in PubChem BioAssay (NCI).
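Step 1: Grow cells in 96-well plates. Step 2: Expose to compound for 48 hours at 5 concentrations. Step 3: Interpolate endpoints linearly; if unreached, use highest concentration. At the TGI there is no net growth.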

Experiments:
Assay in all cases: NCI anticancer screen, dose series, 48 h
[1] = tested on: MDA-MB-231 breast
[2] = tested on: NCI-H522 lung
[3] = tested on: SR leukemia
[4] = tested on: NCI-H460 lung
[5] = tested on: BT-549 breast
[6] = tested on: UO-31 renal
[7] = tested on: OVCAR-8 ovarian
[8] = tested on: SF-295 CNS
[9] = tested on: MOLT-4 leukemia
[10] = tested on: LOX IMVI melanoma
[11] = tested on: OVCAR-3 ovarian
[12] = tested on: HT29 colon
[13] = tested on: DU-145 prostate
[14] = tested on: MALME-3M melanoma
[15] = tested on: UACC-62 melanoma
[16] = tested on: SF-539 CNS
[17] = tested on: SK-MEL-5 melanoma
[18] = tested on: M14 melanoma
[19] = tested on: 786-0 renal
[20] = tested on: HCT-116 colon
[21] = tested on: TK-10 renal
[22] = tested on: HOP-62 NSCLC
[23] = tested on: NCI-H226 lung
[24] = tested on: RPMI-8226 leukemia
[25] = tested on: EKVX NSCLC
[26] = tested on: OVCAR-5 ovarian
[27] = tested on: MDA-N
[28] = tested on: T-47D breast
[29] = tested on: NCI-H23 lung
[30] = tested on: HCC-2998 colon
[31] = tested on: SK-OV-3 ovarian
[32] = tested on: ACHN renal
[33] = tested on: NCI/ADR-RES ovarian
[34] = tested on: SK-MEL-2 melanoma
[35] = tested on: A498 renal
[36] = tested on: A549 NSCLC
[37] = tested on: HL-60(TB) leukemia
[38] = tested on: UACC-257 melanoma
[39] = tested on: HCT-15 colon
[40] = tested on: SK-MEL-28 melanoma
[41] = tested on: SN12C renal
[42] = tested on: MCF7 breast
[43] = tested on: SNB-75 CNS
[44] = tested on: PC-3 prostate
[45] = tested on: OVCAR-4 ovarian
[46] = tested on: K-562 leukemia
[47] = tested on: SF-268 CNS
[48] = tested on: HS 578T breast
[49] = tested on: SNB-19 CNS
[50] = tested on: COLO 205 colon
[51] = tested on: CAKI-1 renal
[52] = tested on: MDA-MB-435
[53] = tested on: CCRF-CEM leukemia
[54] = tested on: KM12 colon
[55] = tested on: U251 CNS
[56] = tested on: SW-620 colon
[57] = tested on: IGROV1 ovarian

CCOC(=O)C1(Cc2ccc3c(c2)CCC3)Cc2cc3c(cc2C1=O)CCC3 (configuration not stated)
TGI [1]: > 100 µM
TGI [2]: > 100 µM
TGI [3]: > 100 µM
TGI [4]: > 100 µM
TGI [5]: > 100 µM
TGI [6]: > 100 µM
TGI [7]: > 100 µM
TGI [8]: > 100 µM
TGI [9]: > 100 µM
TGI [10]: > 100 µM
TGI [11]: > 100 µM
TGI [12]: > 100 µM
TGI [13]: > 100 µM
TGI [14]: > 100 µM
TGI [15]: > 100 µM
TGI [16]: > 100 µM
TGI [17]: > 100 µM
TGI [18]: > 100 µM
TGI [19]: > 100 µM
TGI [20]: > 100 µM
TGI [21]: > 100 µM
TGI [22]: > 100 µM
TGI [23]: > 100 µM
TGI [24]: > 100 µM
TGI [25]: > 100 µM
TGI [26]: > 100 µM
TGI [27]: > 100 µM
TGI [28]: > 100 µM
TGI [29]: > 100 µM
TGI [30]: > 100 µM
TGI [31]: > 100 µM
TGI [32]: > 100 µM
TGI [33]: > 100 µM
TGI [34]: > 100 µM
TGI [35]: > 78.7 µM
TGI [36]: > 100 µM
TGI [37]: 7.07 µM
TGI [38]: > 100 µM
TGI [39]: > 100 µM
TGI [40]: > 100 µM
TGI [41]: > 100 µM
TGI [42]: > 100 µM
TGI [43]: > 100 µM
TGI [44]: > 100 µM
TGI [45]: > 100 µM
TGI [46]: > 100 µM
TGI [47]: > 100 µM
TGI [48]: > 100 µM
TGI [49]: > 100 µM
TGI [50]: > 100 µM
TGI [51]: > 100 µM
TGI [52]: > 100 µM
TGI [53]: > 100 µM
TGI [54]: > 100 µM
TGI [55]: > 100 µM
TGI [56]: > 100 µM
TGI [57]: > 100 µM
